Literature values, collected in patent US6967217B1, “Process and composition for enhancing the action of vitamin a on the cellular activity of an individual, and use of vitamin c” (Natura Cosmetico S.A., priority 1998, dated 2005).

System: wrinkles
Details: Retinol 0.034%; men and women with age between 22 and 34 years

For `CC1=C(/C=C/C(C)=C/C=C/C(C)=C/CO)C(C)(C)CCC1` [Retinol], the effect on wrinkles is listed as “reduce the amount and the deepness of wrinkles”.
